{"source": "paper PMC8207694", "about": "“Nucleoside transporter-guided cytarabine-conjugated liposomes for intracellular methotrexate delivery and cooperative choriocarcinoma therapy” (Journal of Nanobiotechnology, 2021)", "key": {"[1]": {"test_system": "JEG-3 cells", "assay": "Specific uptake of cytarabine into the cells (LC/MS)", "format": "cell-based, human", "details": "Cy 5 μM, after 30 min and 1 h; compared with Pricell-0051, MCF-7, HepG2 cells; P < 0.05", "procedure": "JEG-3 cells, MCF-7 cells, or HepG2 cells were plated overnight in 6-well plates. Then, the adhered cells were treated with Cy (5 μM) for 30 min or 60 min. Then, cells were washed with PBS for moving the free drug in the medium. After that, the cells were lysed and treated with acetonitrile for precipitating protein. Finally, the content of Cy was detected by LC/MS (8050, SHIMADZU, Japan)."}, "[2]": {"test_system": "JEG-3 cells", "assay": "Effect of endocytosis inhibitors on liposome uptake", "format": "cell-based, human", "details": "pre-treatment 30 min; chlorpromazine 50 μM, indomethacin 50 μM, colchicine 10 μM, quercetin 10 μM", "procedure": "Endocytosis was studied by adding JEG-3 cells to 6 well-plates and pre-treating them for 30 min with inhibitors of various endocytic pathways including the clathrin-dependent endocytosis inhibitor chlorpromazine (50 μM), the caveolin-dependent endocytosis inhibitor indomethacin (50 μM), the micropinocytosis inhibitor colchicine (10 μM), and quercetin (10 μM) as tools for inhibiting caveolae- or clathrin-independent endocytosis. Then, the medium was removed, and the fresh medium containing Dox-labeled liposomes was added to the plate. The cells were incubated for another 4 h. Subsequent steps were the same as those in uptake assay."}, "[3]": {"target": "T1, ENT1 (Homo sapiens, UniProt Q99808)", "T1 sequence (Q99808 1-456)": "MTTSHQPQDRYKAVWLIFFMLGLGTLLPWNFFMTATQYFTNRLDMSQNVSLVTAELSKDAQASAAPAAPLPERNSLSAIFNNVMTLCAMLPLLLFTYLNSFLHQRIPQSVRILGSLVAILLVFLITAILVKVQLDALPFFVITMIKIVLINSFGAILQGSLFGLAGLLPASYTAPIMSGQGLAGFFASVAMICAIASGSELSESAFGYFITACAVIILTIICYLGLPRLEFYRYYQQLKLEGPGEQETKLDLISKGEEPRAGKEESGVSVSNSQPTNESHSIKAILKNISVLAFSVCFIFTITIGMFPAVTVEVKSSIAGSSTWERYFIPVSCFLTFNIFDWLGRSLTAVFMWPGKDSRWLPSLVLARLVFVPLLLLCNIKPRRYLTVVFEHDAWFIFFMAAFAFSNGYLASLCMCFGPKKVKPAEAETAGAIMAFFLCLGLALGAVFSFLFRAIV", "assay": "Effect of ENT1 competitive inhibitors on MTX formulation cytotoxicity (MTT)", "details": "then 20 μg MTX-equivalent/mL for 48 h; for effect of pre-treatment on toxicity of Cy-Lipo@MTX to JEG-3 cells: inhibitor 0.2-5.0 μM for 2 h", "procedure": "To investigate the effect of ENT1 on MTX formulations induced cytotoxicity, 2′-deoxycytidine and gemcitabine, as competitive inhibitors of ENT1, were cultured with adherent JEG-3 cells for 2 h. Next, the medium was removed, and the fresh medium containing MTX formulations (20 μg MTX-equivalent/mL) was added to the plate. The cells were incubated for another 48 h. MTT reagent was added as previously described, and absorbance was assessed via microplate reader."}, "[4]": {"target": "T1, ENT1", "assay": "Competitive inhibition of liposome uptake by ENT1 substrates", "format": "cell-based", "parameters": "endogenous in cells; host or cells: JEG-3 (human choriocarcinoma cells)", "details": "pre-treatment 2 h, 0.2-5.0 μM, then liposomes 4 h", "procedure": "Briefly, different concentration (0.2–5.0 μM) of 2′-deoxycytidine or gemcitabine was cultured with the adherent JEG-3 cells for 2 h. Then, the medium was removed, and the fresh medium containing Dox-labeled liposomes was added to the plate. The cells were incubated for another 4 h. Subsequent steps were the same as those in uptake assay."}}, "data": [{"smiles": "Nc1ccn([C@@H]2O[C@H](CO)[C@@H](O)[C@@H]2O)c(=O)n1", "note": "[Cy, cytosine β-d-arabinofuranoside]", "values": [{"measurement": "amount of Cy taken up by JEG-3 cells", "setting": "[1]", "result": "significantly higher than that taken up by Pricell-0051, MCF-7, and HepG2 cells"}]}, {"smiles": "O=c1c(O)c(-c2ccc(O)c(O)c2)oc2cc(O)cc(O)c12", "note": "[Quercetin, quercetin]", "values": [{"measurement": "effect of endocytosis inhibitor on uptake of Dox-labeled Cy-Lipo", "setting": "[2]", "result": "a certain inhibitory effect"}]}, {"smiles": "CN(C)CCCN1c2ccccc2Sc2ccc(Cl)cc21", "note": "[chlorpromazine]", "values": [{"measurement": "effect of endocytosis inhibitor on uptake of Dox-labeled Cy-Lipo", "setting": "[2]", "result": "next most substantial inhibition"}]}, {"smiles": "COc1cc2c(c(OC)c1OC)-c1ccc(OC)c(=O)cc1[C@@H](NC(C)=O)CC2", "note": "[colchicine]", "values": [{"measurement": "effect of endocytosis inhibitor on uptake of Dox-labeled Cy-Lipo", "setting": "[2]", "result": "reduced effect"}]}, {"smiles": "Cl.Nc1ccn([C@H]2C[C@H](O)[C@@H](CO)O2)c(=O)n1", "note": "[deoxycytidine, 2′-deoxycytidine hydrochloride]", "values": [{"measurement": "effect of pre-treatment on toxicity of Cy-Lipo@MTX to JEG-3 cells", "setting": "[3]", "result": "significantly reduced the toxicity of Cy-Lipo@MTX to JEG-3 cells"}, {"measurement": "effect on uptake of Dox-labeled Cy-Lipo by JEG-3 cells", "setting": "[4]", "result": "significantly reduce the uptake of Dox-labeled Cy-Lipo by JEG-3 cells in a concentration-dependent manner"}, {"measurement": "effect on uptake of Dox-labeled Lipo by JEG-3 cells", "setting": "[4]", "result": "less of effect"}]}, {"smiles": "Nc1ccn([C@@H]2O[C@H](CO)[C@@H](O)C2(F)F)c(=O)n1", "note": "[gemcitabine]", "values": [{"measurement": "effect of pre-treatment on toxicity of Cy-Lipo@MTX to JEG-3 cells", "setting": "[3]", "result": "significantly reduced the toxicity of Cy-Lipo@MTX to JEG-3 cells"}, {"measurement": "effect of pre-treatment on cytotoxicity of free MTX or Lipo@MTX in JEG-3 cells", "setting": "[3]; inhibitor for 2 h", "result": "little effect"}, {"measurement": "effect on uptake of Dox-labeled Cy-Lipo by JEG-3 cells", "setting": "[4]", "result": "significantly influenced the uptake of Dox-labeled Cy-Lipo at concentrations of 1.0 μM and 5.0 μM"}]}, {"smiles": "COc1ccc2c(c1)c(CC(=O)O)c(C)n2C(=O)c1ccc(Cl)cc1", "note": "[indomethacin]", "values": [{"measurement": "effect of endocytosis inhibitor on uptake of Dox-labeled Cy-Lipo", "setting": "[2]", "result": "impacted the uptake of Dox-labeled Cy-Lipo to the greatest extent"}]}]}
